In PubChem BioAssay (NCI) one finds GI50 and TGI data, which are given here for 27 compounds.

Among the test systems are DU-145 prostate; SR leukemia; PC-3 prostate; T-47D breast; SNB-75 CNS; NCI/ADR-RES ovarian; KM20L2 colon; XF 498 CNS; DMS 273 small cell lung; M19-MEL melanoma; MDA-N; 786-0 renal; HOP-18 NSCLC; SNB-78 CNS.
Holding throughout (assay): growth of human tumour cells (NCI), 48 h

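Cultured in 96-well plates, cells were exposed to test compound for 48 hours across five concentrations. Here, GI50 denotes the concentration required for 50% inhibition of growth. TGI: concentration producing complete growth inhibition.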 A value given as a limit tells only on which side of the number the result lay.

`CC1(O)COCCCCOc2c(CN)cccc2NC(=O)c2nc(cnc2N)-c2ccc(cc2)S(=O)(=O)C(C)(C)C1` (stereo not drawn): the GI50 was 0.0388 µM in the experiment on DU-145 prostate; under 0.01 µM with SR leukemia; 1.18 µM in the experiment with PC-3 prostate; 1.44 µM in the experiment with T-47D breast; 0.17 µM with SNB-75 CNS; 1.71 µM in the experiment with NCI/ADR-RES ovarian. Moreover, the TGI with DU-145 prostate amounted to 2.04 µM; in the experiment on SR leukemia, 0.391 µM; in the experiment on PC-3 prostate, 2.54 µM; with T-47D breast it was 3.27 µM; in the experiment on SNB-75 CNS, 1.94 µM; with NCI/ADR-RES ovarian, 4.02 µM.
With `Cc1ccc(N=NC(C2=NC(=O)CS2)c2nc3ccccc3[nH]2)cc1` (stereo not drawn), the TGI in the experiment on KM20L2 colon, with XF 498 CNS, in the experiment with SR leukemia, with DMS 273 small cell lung, in the experiment with M19-MEL melanoma and with SNB-75 CNS was over 100 µM each time.
With `CC1(C=O)CCC23COC4(CCC5C6(C)CCC(OC7OCC(OC8OC(CO)C(O)C(OC9OC(CO)C(O)C(O)C9O)C8OC8OCC(O)C(O)C8O)C(O)C7OC7OC(CO)C(O)C(O)C7O)C(C)(C)C6CCC5(C)C4(C)CC2O)C3C1` (stereo not drawn), the TGI worked out at 2.77 µM with DU-145 prostate; 0.617 µM in the experiment on SR leukemia; 1.81 µM in the experiment with MDA-N; 2.67 µM in the experiment on PC-3 prostate; 3.36 µM in the experiment with T-47D breast; 2.43 µM in the experiment with 786-0 renal. Moreover, the TGI is 2.51 µM in the experiment on SNB-75 CNS and 1.05 µM in the experiment on NCI/ADR-RES ovarian.
For the compound `CO/N=C(\C)c1cccc(Nc2nc3ccccc3c3occc23)c1`, the TGI in the experiment on DU-145 prostate was 30.8 µM; in the experiment on SR leukemia, 34.2 µM; in the experiment on MDA-N, 28.5 µM; in the experiment on PC-3 prostate, 28.2 µM; in the experiment on T-47D breast it was 31.3 µM; with 786-0 renal, 26.7 µM. Moreover, the TGI in the experiment on SNB-75 CNS was 29.1 µM; with NCI/ADR-RES ovarian, 30.7 µM.
As to `CCc1ccc2c(c1)C(=O)c1c-2n(CCCN)c(=O)c2cc([N+](=O)[O-])ccc12`, the GI50 in the experiment with DU-145 prostate was 0.775 µM; with T-47D breast it was 1.28 µM; with NCI/ADR-RES ovarian it was 1.62 µM. Also, the TGI stood at 2.05 µM in the experiment on DU-145 prostate, 2.91 µM in the experiment with T-47D breast and 3.29 µM with NCI/ADR-RES ovarian.
Regarding `CCOP(=O)(OCC)C(Nc1cccc(F)c1)c1ccc(N(C)C)cc1` (stereo not drawn), the TGI with DU-145 prostate, in the experiment with SR leukemia, with MDA-N, in the experiment with PC-3 prostate, in the experiment with T-47D breast and in the experiment with SNB-75 CNS was over 100 µM in each case. Also, the TGI in the experiment with NCI/ADR-RES ovarian was over 100 µM.
As to `CC1CC(Br)C(=O)O1` (stereo not drawn), the TGI in the experiment with DU-145 prostate, with MDA-N, in the experiment with PC-3 prostate, with T-47D breast, in the experiment on SNB-75 CNS and in the experiment with NCI/ADR-RES ovarian was over 100 µM in each case.
Turning to `COC(=O)NC1C(C)OC(OC2C/C=C(/C)C3C=CC4C(OC5CC(OC6CC(OC7CC(O)C(O)C(C)O7)C(OC7CC(O)C(OC)C(C)O7)C(C)O6)C(O)C(C)O5)C(C)CC(C)C4C3(C)/C(O)=C3\C(=O)OC4(CC(C)C(CO)=CC4/C=C\2C)C3=O)CC1(C)[N+](=O)[O-]` (stereo not drawn), the TGI was 19.6 µM in the experiment on DU-145 prostate; 24.2 µM in the experiment with SR leukemia; over 100 µM in the experiment on MDA-N; over 100 µM in the experiment on PC-3 prostate; 25 µM with T-47D breast; 7.08 µM in the experiment with 786-0 renal. Further, the TGI with SNB-75 CNS is 16.7 µM; in the experiment on NCI/ADR-RES ovarian, over 100 µM.
On to `C[N+](C)(C)CCN[N+]1(C)CCCc2ccccc21` (stereo not drawn), for which the TGI in the experiment with DU-145 prostate, with SR leukemia, in the experiment on MDA-N, in the experiment with PC-3 prostate, with T-47D breast and in the experiment on 786-0 renal was over 100 µM each time. Besides, the TGI with SNB-75 CNS and with NCI/ADR-RES ovarian was over 100 µM each time.
Turning to `COc1cc([N+](=O)[O-])ccc1N1C(=O)C2c3[nH]c4ccccc4c3C3CCC(C(C)(C)C)CC3C2C1=O` (stereo not drawn), the TGI in the experiment on DU-145 prostate, in the experiment with SR leukemia, in the experiment on MDA-N, in the experiment with PC-3 prostate and in the experiment on NCI/ADR-RES ovarian was over 100 µM each time.
As for `CS(=O)(=O)OCCN(CCOS(C)(=O)=O)c1ccc(/C=N/Nc2ncnc3nc[nH]c23)cc1`, the TGI with KM20L2 colon is 58 µM; in the experiment with XF 498 CNS, 38.8 µM; with SR leukemia it was 46 µM; in the experiment with DMS 273 small cell lung, 35.4 µM; in the experiment on HOP-18 NSCLC it was 70.7 µM; in the experiment with SNB-78 CNS, 75.5 µM. Further, the figures for the TGI in the experiment with M19-MEL melanoma, with 786-0 renal and with SNB-75 CNS were 51 µM, 45.5 µM and 33.6 µM, respectively.
For the compound `CCCCCCCN(CCCCCCC)CC(O)c1cc2ccccc2c2cc(Br)ccc12` (stereo not drawn), the TGI is 38.8 µM with DU-145 prostate; over 100 µM in the experiment on SR leukemia; over 100 µM in the experiment on MDA-N; over 100 µM with PC-3 prostate; over 100 µM in the experiment on T-47D breast; over 100 µM in the experiment on 786-0 renal. Further, the TGI in the experiment with SNB-75 CNS is 93.9 µM; in the experiment with NCI/ADR-RES ovarian, over 100 µM.
On to `CCO[C@]12CCC[C@H]1[C@@H]1C(=O)c3ccccc3C(=O)C1=C(C)O2`, for which the TGI is over 100 µM with DU-145 prostate; 59.1 µM with SR leukemia; 43 µM in the experiment on MDA-N; over 100 µM in the experiment with PC-3 prostate; over 100 µM in the experiment on T-47D breast; over 100 µM with 786-0 renal. Besides, the TGI with SNB-75 CNS and in the experiment on NCI/ADR-RES ovarian was over 100 µM in each case.
As for `c1c2c(cc3c1OCO3)-c1cc3ccc4c(c3c[n+]1CC2)OCO4`, the TGI was over 12.5 µM with DU-145 prostate; over 12.5 µM in the experiment on SR leukemia; 0.595 µM in the experiment with MDA-N; over 12.5 µM in the experiment with PC-3 prostate; over 12.5 µM with T-47D breast; over 10.1 µM in the experiment on 786-0 renal. Further, the TGI in the experiment on SNB-75 CNS was over 8.5 µM; with NCI/ADR-RES ovarian it was 1.28 µM.
Regarding `Oc1ccc(-c2nc3cc(F)ccc3s2)cc1`, the TGI in the experiment with DU-145 prostate is 41.3 µM; in the experiment with SR leukemia, 16 µM; in the experiment with MDA-N it was 79.4 µM; in the experiment with PC-3 prostate it was 60 µM; in the experiment on T-47D breast, 33.7 µM; with 786-0 renal it was 92.6 µM. In the experiment on NCI/ADR-RES ovarian, the TGI was 42.4 µM.
Regarding `Cc1c2cc[n+](C)cc2c(C)c2c1oc1ccccc12`, the TGI in the experiment on DU-145 prostate was 64.7 µM; in the experiment with KM20L2 colon it was over 64.1 µM; in the experiment with SR leukemia, 30.5 µM; in the experiment with DMS 273 small cell lung it was 16.7 µM; in the experiment with MDA-N it was 23.8 µM; in the experiment on PC-3 prostate, 37.8 µM. Also, the TGI in the experiment on HOP-18 NSCLC was over 63.7 µM; with SNB-78 CNS, 29.6 µM; in the experiment on M19-MEL melanoma, 8.99 µM; in the experiment with 786-0 renal it was 31.8 µM; in the experiment on SNB-75 CNS, 5.49 µM; with NCI/ADR-RES ovarian, over 100 µM.
For the compound `c1ccc([P+](c2ccccc2)(c2ccccc2)c2ccc(-c3ccc([P+](c4ccccc4)(c4ccccc4)c4ccccc4)cc3)cc2)cc1`, the TGI is over 100 µM in the experiment with DU-145 prostate; 92.6 µM in the experiment on MDA-N; 73.9 µM in the experiment with PC-3 prostate; over 100 µM in the experiment on T-47D breast; over 100 µM with 786-0 renal; over 100 µM in the experiment with NCI/ADR-RES ovarian.
Consider `CCOC(=O)Nc1cc2c(c(N)n1)N=C(c1ccc3ccccc3c1)CN2`, for which the TGI in the experiment with DU-145 prostate was over 100 µM; in the experiment with SR leukemia, over 100 µM; with MDA-N, 1.04 µM; in the experiment with PC-3 prostate, 24.7 µM; in the experiment on T-47D breast it was over 100 µM; in the experiment on 786-0 renal it was 3.81 µM. The TGI in the experiment on NCI/ADR-RES ovarian came to 0.16 µM.
On to `CCSc1nc(-c2cccs2)nc2ccc(I)cc12`, for which the TGI with DU-145 prostate is over 100 µM; with SR leukemia it was over 100 µM; with MDA-N, over 100 µM; in the experiment on PC-3 prostate, over 100 µM; with T-47D breast, 6.88 µM; in the experiment with 786-0 renal, over 100 µM. The TGI in the experiment on SNB-75 CNS and in the experiment with NCI/ADR-RES ovarian was over 100 µM throughout.
Take `N=C(N)SCc1cccc([N+](=O)[O-])c1`: the TGI in the experiment on KM20L2 colon is over 90.6 µM; with XF 498 CNS, 71.8 µM; in the experiment with DMS 273 small cell lung, over 100 µM; with HOP-18 NSCLC, 89.1 µM; in the experiment with SNB-78 CNS, over 100 µM; in the experiment on M19-MEL melanoma, over 100 µM. The TGI in the experiment with SNB-75 CNS is 89 µM; with NCI/ADR-RES ovarian it was 48.3 µM.
For `O=C(NC(Cc1ccc(I)cc1)C(=O)O)c1ccc(Cl)cc1` (stereo not drawn), the TGI in the experiment with KM20L2 colon, with XF 498 CNS, with DMS 273 small cell lung, in the experiment on HOP-18 NSCLC, in the experiment on SNB-78 CNS and in the experiment on M19-MEL melanoma was over 100 µM in each case. Further, the TGI in the experiment on SNB-75 CNS and in the experiment with NCI/ADR-RES ovarian was over 100 µM each time.
Take `NCCNCCNc1ccc(NCCNCCN)c2c1C(=O)c1c(O)ccc(O)c1C2=O`: the TGI in the experiment with DU-145 prostate was over 100 µM; with SR leukemia, 23.8 µM; in the experiment with MDA-N, over 100 µM; with PC-3 prostate it was over 100 µM; with 786-0 renal, over 100 µM; with SNB-75 CNS it was over 100 µM. The compound further had a TGI with NCI/ADR-RES ovarian of over 100 µM.
Turning to `COc1cc([N+](=O)[O-])ccc1NC(=O)c1cccc([N+](=O)[O-])c1O`, the TGI with KM20L2 colon is over 100 µM; in the experiment on SR leukemia it was over 100 µM; with HOP-18 NSCLC it was 61 µM; in the experiment with SNB-78 CNS, over 100 µM; with M19-MEL melanoma it was over 100 µM; with SNB-75 CNS it was 70.5 µM.
For the compound `Nc1nc(OCC2CCCCC2)c2[nH]cnc2n1`, the TGI with DU-145 prostate is over 64.3 µM; in the experiment on SR leukemia, over 59.1 µM; in the experiment with MDA-N, 58.3 µM; with PC-3 prostate it was 41.2 µM; in the experiment on T-47D breast it was 30 µM; in the experiment with 786-0 renal it was over 88.1 µM. In addition, the TGI with SNB-75 CNS was over 81 µM; with NCI/ADR-RES ovarian, over 100 µM.
For `O=C1OC2(OC2c2ccc(Cl)cc2)c2ccccc21` (stereo not drawn), the TGI with KM20L2 colon, in the experiment with XF 498 CNS, in the experiment with SR leukemia, in the experiment with DMS 273 small cell lung, in the experiment with M19-MEL melanoma and in the experiment on SNB-75 CNS was over 100 µM each time.
Turning to `CNC(C)Cc1ccccc1OC` (stereo not drawn), the TGI with KM20L2 colon, in the experiment on XF 498 CNS, with DMS 273 small cell lung, with HOP-18 NSCLC, in the experiment with SNB-78 CNS and in the experiment with 786-0 renal was over 100 µM in each case. In the experiment on SNB-75 CNS, this compound had a TGI of over 100 µM.
Consider `CN(C)c1ccc(/C=c2/c3ccccc3n3c2cc(NC(=O)NCCC[N+](C)(C)C)[n+]3C)cc1`, for which the TGI with DU-145 prostate, with SR leukemia, in the experiment on PC-3 prostate, in the experiment on T-47D breast, with 786-0 renal and with NCI/ADR-RES ovarian was over 100 µM throughout.
